Where two headings read alike, the source gives them in different places.
Experiments:
[1] = Liver microsome stability, human; assay type: in vitro ADME; details: liver microsomes
Experimental: Liver microsome stability assays were performed by BioDuro Inc. Human and mouse (CD-1 male) liver microsomes were used. […] Next, 50 μL of reaction buffer was added to solution and mixed via pipetting up and down 6 times. At each time point of 0, 30, and 60 min, an aliquot of 20 μL was removed from each tube. Liver microsomes (LM) working solution was prepared in 0.05 M phosphate reaction buffer (pH = 7.4) to a final concentration of 1.27 mg/mL. NADPH solution was prepared in 0.05 M phosphate buffer to afford a 5 mM buffer solution. […] After vortexing and incubating for 5 min (37°C), 50 μL of NADPH solution was added and mixed via pipetting. At each time point of 0, 5, 15, 30, and 60 min, an aliquot of 20 μL was removed from each tube. Next, 250 μL of quenching solution was aliquoted to quench the reaction, which was then vortexed for 1 min and placed on ice for 40 min. After centrifugation at 4,000 × g for 15 min, 100 μL of supernatant was transferred using a multichannel pipette to 0.65-mL tubes. Samples were diluted with MeOH: H2O (1:1) as necessary. Samples were analyzed by high-pressure liquid chromatography coupled to tandem mass spectrometry (LC/MS/MS) performed on a Sciex Applied Biosystems Qtrap 4000 triple-quadrupole mass spectrometer coupled to a Shimadzu HPLC system to quantify the remaining compound. […]

hERG K+ channel = hERG K+ channel (Homo sapiens, UniProt Q12809); assay: hERG inhibition, whole-cell patch clamp in HEK-293 cells; details: pH 7.4
[2] = tested on: vancomycin-resistant enterococci (VRE); assay: MIC, in vitro susceptibility testing (CLSI); assay type: cell-based; details: Enterococcus
MRSA [3] = assay: MIC, in vitro susceptibility testing (CLSI); assay type: cell-based, Staphylococcus aureus
Neisseria = assay type: cell-based, N. gonorrhoeae; details: at 1× MIC; resistance not observed; data not shown
MRSA [4] = assay type: cell-based, S. aureus; details: at 1× MIC; resistance not observed; data not shown
E. coli = assay: microbe, parasite or virus in culture; assay type: cell-based; details: Escherichia coli
[5] = tested on: E. coli, Pseudomonas aeruginosa, Klebsiella pneumoniae, Acinetobacter baumannii, Francisella tularensis, Yersinia pestis; assay: organism not typed; assay type: cell-based
[6] = Staphylococcus aureus, MRSA, 101 strains

hERG K+ channel, sequence (Q12809 whole entry): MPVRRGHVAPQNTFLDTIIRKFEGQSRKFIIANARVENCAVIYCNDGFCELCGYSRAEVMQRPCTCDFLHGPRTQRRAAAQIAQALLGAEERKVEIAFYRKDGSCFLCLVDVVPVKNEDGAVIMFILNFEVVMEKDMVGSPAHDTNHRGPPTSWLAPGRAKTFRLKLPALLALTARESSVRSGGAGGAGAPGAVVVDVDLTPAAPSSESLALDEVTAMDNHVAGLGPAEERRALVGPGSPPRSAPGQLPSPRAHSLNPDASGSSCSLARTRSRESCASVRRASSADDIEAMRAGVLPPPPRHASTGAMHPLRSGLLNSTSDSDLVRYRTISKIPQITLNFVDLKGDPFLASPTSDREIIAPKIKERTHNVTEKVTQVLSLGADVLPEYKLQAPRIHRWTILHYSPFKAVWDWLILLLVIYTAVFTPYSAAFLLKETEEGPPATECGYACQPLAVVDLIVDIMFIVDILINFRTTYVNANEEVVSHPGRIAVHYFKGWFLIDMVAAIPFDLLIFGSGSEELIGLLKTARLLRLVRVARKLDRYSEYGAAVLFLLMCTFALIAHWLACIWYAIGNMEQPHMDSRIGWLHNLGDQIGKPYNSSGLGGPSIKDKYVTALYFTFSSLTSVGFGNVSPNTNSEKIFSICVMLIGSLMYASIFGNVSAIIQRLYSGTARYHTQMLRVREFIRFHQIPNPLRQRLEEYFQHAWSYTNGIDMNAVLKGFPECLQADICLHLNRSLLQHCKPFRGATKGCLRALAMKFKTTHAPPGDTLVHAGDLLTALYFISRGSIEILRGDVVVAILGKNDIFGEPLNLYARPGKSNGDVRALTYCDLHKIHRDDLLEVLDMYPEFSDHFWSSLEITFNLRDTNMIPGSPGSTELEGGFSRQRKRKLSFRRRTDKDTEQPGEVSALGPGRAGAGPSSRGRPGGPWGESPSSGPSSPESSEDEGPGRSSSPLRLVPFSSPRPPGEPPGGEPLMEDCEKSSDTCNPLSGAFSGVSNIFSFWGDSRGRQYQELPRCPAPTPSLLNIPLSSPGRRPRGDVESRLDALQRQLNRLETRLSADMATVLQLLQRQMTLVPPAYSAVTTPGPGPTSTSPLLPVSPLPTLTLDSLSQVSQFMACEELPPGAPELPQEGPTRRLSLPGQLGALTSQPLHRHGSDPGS

CNc1cc(F)cc2c1[nH]c1nc(Oc3cnc(C)nc3)nc(N3CCC4(CC3)CO[C@@H](CO)C4)c12 [JSF-2414]
5.5 h: half-life at 1 μM ([1]; pH 7.4, read-out: HLM t1/2)
0.062 µg/mL: MIC (MRSA [3]; Staphylococcus aureus, MRSA, ciprofloxacin-resistant strains (MIC >4 μg/mL), n = 30, read-out: modal MIC) | MIC (MRSA [3]; Staphylococcus aureus, MRSA, strain 2 11 41, read-out: MIC) | MIC (MRSA [3]; Staphylococcus aureus, MRSA, strain 2 11 43, read-out: MIC) | MIC (MRSA [3]; Staphylococcus aureus, MRSA, strain 2 11 65, read-out: MIC) | MIC (MRSA [3]; Staphylococcus aureus, MRSA, strain 2 11 66, read-out: MIC) | MIC (MRSA [3]; Staphylococcus aureus, MRSA, strain 2 11 71, read-out: MIC) | MIC (MRSA [3]; Staphylococcus aureus, MRSA, strain 2 11 74, read-out: MIC) | MIC (MRSA [3]; Staphylococcus aureus, MRSA, strain 2 11 79, read-out: MIC) | MIC (MRSA [3]; Staphylococcus aureus, MRSA, strain 2 11 83, read-out: MIC) | MIC (MRSA [3]; Staphylococcus aureus, MRSA, strain 2 11 87, read-out: MIC) | MIC (MRSA [3]; Staphylococcus aureus, MRSA, strain 2 13 43, read-out: MIC) | MIC (MRSA [3]; Staphylococcus aureus, MRSA, strain 2 13 53, read-out: MIC) | MIC (MRSA [3]; Staphylococcus aureus, MRSA, strain 2 13 54, read-out: MIC) | MIC (MRSA [3]; Staphylococcus aureus, MRSA, strain 2 13 55, read-out: MIC) | MIC (MRSA [3]; Staphylococcus aureus, MRSA, strain 2 13 56, read-out: MIC) | MIC (MRSA [3]; Staphylococcus aureus, MRSA, strain 2 78 41, read-out: MIC) | MIC (MRSA [3]; Staphylococcus aureus, MRSA, strain 2 79 17, read-out: MIC) | MIC (MRSA [3]; Staphylococcus aureus, MRSA, strain 2 79 65, read-out: MIC) | MIC (MRSA [3]; Staphylococcus aureus, MRSA, strain 2 80 36, read-out: MIC) | MIC (MRSA [3]; Staphylococcus aureus, MRSA, strain 2 80 67, read-out: MIC) | MIC (MRSA [3]; Staphylococcus aureus, MRSA, strain 2 85 32, read-out: MIC) | MIC (MRSA [3]; Staphylococcus aureus, MRSA, strain 2 93 06, read-out: MIC) | MIC (MRSA [3]; Staphylococcus aureus, MRSA, strain USA400Padm, read-out: MIC) | MIC90 (MRSA [3]; [6])
< 7.5 × 10^−4: spontaneous resistance frequency (Neisseria)
< 5.0 × 10^−9: spontaneous resistance frequency (MRSA [4])
0.016 µg/mL: MIC ([2]; strain 3322) | MIC (MRSA [3]; Staphylococcus aureus, MRSA, strain 2 11 42, read-out: MIC) | MIC (MRSA [3]; Staphylococcus aureus, MRSA, strain 2 11 91, read-out: MIC) | MIC (MRSA [3]; Staphylococcus aureus, MRSA, strain 2 12 78, read-out: MIC) | MIC (MRSA [3]; Staphylococcus aureus, MRSA, strain 2 13 19, read-out: MIC) | MIC (MRSA [3]; Staphylococcus aureus, MRSA, strain 2 13 27, read-out: MIC) | MIC (MRSA [3]; Staphylococcus aureus, MRSA, strain 2 13 33, read-out: MIC) | MIC (MRSA [3]; Staphylococcus aureus, MRSA, strain 2 13 57, read-out: MIC) | MIC (MRSA [3]; Staphylococcus aureus, MRSA, strain 2 35 90, read-out: MIC) | MIC (MRSA [3]; Staphylococcus aureus, MRSA, strain 2 66 36, read-out: MIC) | MIC (MRSA [3]; Staphylococcus aureus, MRSA, strain 2 66 41, read-out: MIC) | MIC (MRSA [3]; Staphylococcus aureus, MRSA, strain 2 79 29, read-out: MIC) | MIC (MRSA [3]; Staphylococcus aureus, MRSA, strain 2 85 12, read-out: MIC) | MIC (MRSA [3]; Staphylococcus aureus, MRSA, strain 2 87 77, read-out: MIC) | MIC (MRSA [3]; Staphylococcus aureus, MRSA, strain 2 88 47, read-out: MIC) | MIC (MRSA [3]; Staphylococcus aureus, MRSA, strain 2 88 71, read-out: MIC) | MIC (MRSA [3]; Staphylococcus aureus, MRSA, strain 2 89 13, read-out: MIC) | MIC (MRSA [3]; Staphylococcus aureus, MRSA, strain 2 90 62, read-out: MIC) | MIC (MRSA [3]; Staphylococcus aureus, MRSA, strain 2 90 86, read-out: MIC) | MIC (MRSA [3]; Staphylococcus aureus, MRSA, strain 2 91 79, read-out: MIC) | MIC (MRSA [3]; Staphylococcus aureus, MRSA, strain 2 97 09, read-out: MIC) | MIC (MRSA [3]; Staphylococcus aureus, MRSA, strain 3 03 39, read-out: MIC) | MIC (MRSA [3]; Staphylococcus aureus, MRSA, strain 3 65 31, read-out: MIC) | MIC (MRSA [3]; Staphylococcus aureus, MRSA, strain 3 65 39, read-out: MIC)
> 0.5 µg/mL: MIC ([2]; strain 2138) | MIC ([2]; strain 3090) | MIC [5]
0.125 µg/mL: MIC (MRSA [3]; Staphylococcus aureus, MRSA, strain 2 11 57, read-out: MIC) | MIC (MRSA [3]; Staphylococcus aureus, MRSA, strain 2 11 90, read-out: MIC) | MIC (MRSA [3]; Staphylococcus aureus, MRSA, strain 2 12 13, read-out: MIC) | MIC (MRSA [3]; Staphylococcus aureus, MRSA, strain 2 13 23, read-out: MIC) | MIC (MRSA [3]; Staphylococcus aureus, MRSA, strain 2 13 41, read-out: MIC) | MIC (MRSA [3]; Staphylococcus aureus, MRSA, strain 2 13 47, read-out: MIC)
0.008 µg/mL: MIC ([2]; strain 2927) | MIC (MRSA [3]; Staphylococcus aureus, MRSA, strain 2 11 75, read-out: MIC) | MIC (MRSA [3]; Staphylococcus aureus, MRSA, strain 2 11 99, read-out: MIC) | MIC (MRSA [3]; Staphylococcus aureus, MRSA, strain 2 85 13, read-out: MIC) | MIC (MRSA [3]; Staphylococcus aureus, MRSA, strain 2 88 83, read-out: MIC) | MIC (MRSA [3]; Staphylococcus aureus, MRSA, strain 2 89 17, read-out: MIC) | MIC (MRSA [3]; Staphylococcus aureus, MRSA, strain 3 80 68, read-out: MIC)
2.1 µL/min/mg: microsomal CLint at 1 μM ([1]; pH 7.4, read-out: HLM Clint)
> 50 µM: IC50 at 3 min (hERG K+ channel)
0.5 µg/mL: MIC (E. coli)
0.031 µg/mL: MIC ([2]; strain 2967) | MIC (MRSA [3]; Staphylococcus aureus, MRSA, 101 clinical MRSA strains, read-out: modal MIC) | MIC (MRSA [3]; Staphylococcus aureus, MRSA, discussion, read-out: MIC) | MIC (MRSA [3]; Staphylococcus aureus, MRSA, strain 2 11 84, read-out: MIC) | MIC (MRSA [3]; Staphylococcus aureus, MRSA, strain 2 12 76, read-out: MIC) | MIC (MRSA [3]; Staphylococcus aureus, MRSA, strain 2 13 58, read-out: MIC) | MIC (MRSA [3]; Staphylococcus aureus, MRSA, strain 2 36 04, read-out: MIC) | MIC (MRSA [3]; Staphylococcus aureus, MRSA, strain 2 36 17, read-out: MIC) | MIC (MRSA [3]; Staphylococcus aureus, MRSA, strain 2 36 31, read-out: MIC) | MIC (MRSA [3]; Staphylococcus aureus, MRSA, strain 2 78 62, read-out: MIC) | MIC (MRSA [3]; Staphylococcus aureus, MRSA, strain 2 78 66, read-out: MIC) | MIC (MRSA [3]; Staphylococcus aureus, MRSA, strain 2 78 96, read-out: MIC) | MIC (MRSA [3]; Staphylococcus aureus, MRSA, strain 2 79 22, read-out: MIC) | MIC (MRSA [3]; Staphylococcus aureus, MRSA, strain 2 79 25, read-out: MIC) | MIC (MRSA [3]; Staphylococcus aureus, MRSA, strain 2 79 33, read-out: MIC) | MIC (MRSA [3]; Staphylococcus aureus, MRSA, strain 2 79 67 (first listing), read-out: MIC) | MIC (MRSA [3]; Staphylococcus aureus, MRSA, strain 2 79 67 (second listing), read-out: MIC) | MIC (MRSA [3]; Staphylococcus aureus, MRSA, strain 2 80 46, read-out: MIC) | MIC (MRSA [3]; Staphylococcus aureus, MRSA, strain 2 80 48, read-out: MIC) | MIC (MRSA [3]; Staphylococcus aureus, MRSA, strain 2 80 62, read-out: MIC) | MIC (MRSA [3]; Staphylococcus aureus, MRSA, strain 2 81 54, read-out: MIC) | MIC (MRSA [3]; Staphylococcus aureus, MRSA, strain 2 85 14, read-out: MIC) | MIC (MRSA [3]; Staphylococcus aureus, MRSA, strain 2 87 54, read-out: MIC) | MIC (MRSA [3]; Staphylococcus aureus, MRSA, strain 2 87 55, read-out: MIC) | MIC (MRSA [3]; Staphylococcus aureus, MRSA, strain 2 90 98, read-out: MIC) | MIC (MRSA [3]; Staphylococcus aureus, MRSA, strain 2 91 55, read-out: MIC) | MIC (MRSA [3]; Staphylococcus aureus, MRSA, strain 2 91 84, read-out: MIC) | MIC (MRSA [3]; Staphylococcus aureus, MRSA, strain 2 93 24, read-out: MIC) | MIC (MRSA [3]; Staphylococcus aureus, MRSA, strain 2 93 30, read-out: MIC) | MIC (MRSA [3]; Staphylococcus aureus, MRSA, strain 2 95 78, read-out: MIC) | MIC (MRSA [3]; Staphylococcus aureus, MRSA, strain 2 96 95, read-out: MIC) | MIC50 (MRSA [3]; [6])
0.002 to 0.125 µg/mL: MIC range (MRSA [3]; 101 strains (Van: 8))
0.002 µg/mL: MIC ([2]; strain 2139) | MIC ([2]; strain 3091) | MIC (MRSA [3]; Staphylococcus aureus, MRSA, strain 2 11 58, read-out: MIC) | MIC (MRSA [3]; Staphylococcus aureus, MRSA, strain 2 11 80, read-out: MIC) | MIC (MRSA [3]; Staphylococcus aureus, MRSA, strain 2 11 86, read-out: MIC) | MIC (MRSA [3]; Staphylococcus aureus, MRSA, strain 2 13 29, read-out: MIC) | MIC (MRSA [3]; Staphylococcus aureus, MRSA, strain 2 13 48, read-out: MIC) | MIC (MRSA [3]; Staphylococcus aureus, MRSA, strain 2 13 52, read-out: MIC) | MIC (MRSA [3]; Staphylococcus aureus, MRSA, strain 3 80 43, read-out: MIC)
0.004 µg/mL: MIC ([2]; strain 2966) | MIC (MRSA [3]; Staphylococcus aureus, MRSA, strain 2 11 56, read-out: MIC) | MIC (MRSA [3]; Staphylococcus aureus, MRSA, strain 2 11 60, read-out: MIC) | MIC (MRSA [3]; Staphylococcus aureus, MRSA, strain 2 11 61, read-out: MIC) | MIC (MRSA [3]; Staphylococcus aureus, MRSA, strain 2 11 67, read-out: MIC) | MIC (MRSA [3]; Staphylococcus aureus, MRSA, strain 2 11 68, read-out: MIC) | MIC (MRSA [3]; Staphylococcus aureus, MRSA, strain 2 12 88, read-out: MIC) | MIC (MRSA [3]; Staphylococcus aureus, MRSA, strain 2 13 26, read-out: MIC) | MIC (MRSA [3]; Staphylococcus aureus, MRSA, strain 2 13 32, read-out: MIC) | MIC (MRSA [3]; Staphylococcus aureus, MRSA, strain 2 88 84, read-out: MIC)
